What all share (type): in vivo
The subject of one assay is Avena fatua. Briefly: Pre-emergence herbicidal effect. The following applies: 80 g/ha, scored visually after 3 weeks, 100% = plants have died, 0% = like control plants. The text has this: (§1) Seeds of monocotyledonous and dicotyledonous weed plants and crop plants are laid out in sandy loam soil in wood-fiber pots and covered with soil. The compounds of the invention, formulated in the form of wettable powders (WP) or as emulsion concentrates (EC), are then applied to the surface of the covering soil as aqueous suspension or emulsion at a water application rate equating to 600 to 800 L/ha with addition of 0.2% wetting agent.
(§2) After the treatment, the pots are placed in a greenhouse and kept under good growth conditions for the trial plants. The damage to the test plants is scored visually after a test period of 3 weeks by comparison with untreated controls (herbicidal activity in percent (%): 100% activity=the plants have died, 0% activity=like control plants).

The test system of assay [1] is Setaria viridis. Briefly: Pre-emergence herbicidal effect. The following applies: 80 g/ha, scored visually after 3 weeks, 100% = plants have died, 0% = like control plants.
From the text: as §1, §2

In assay [2] the test system is Alopecurus myosuroides. Kind of assay: Pre-emergence herbicidal effect. The following applies: 80 g/ha, scored visually after 3 weeks, 100% = plants have died, 0% = like control plants.
From the text: as §1, §2

Assay [3] relates to Lolium rigidum. Kind of assay: Pre-emergence herbicidal effect. The following applies: 80 g/ha, scored visually after 3 weeks, 100% = plants have died, 0% = like control plants.
From the text: as §1, §2

Assay [4] deals with Hordeum murinum. Kind of assay: Pre-emergence herbicidal effect. The following applies: 80 g/ha, scored visually after 3 weeks, 100% = plants have died, 0% = like control plants.
From the text: as §1, §2

Assay [5] has as its system Echinochloa crus-galli. Briefly: Pre-emergence herbicidal effect. The following applies: 80 g/ha, scored visually after 3 weeks, 100% = plants have died, 0% = like control plants.
From the text: as §1, §2

The next assay has as its system Digitaria sanguinalis. Kind of assay: Post-emergence herbicidal effect. The following applies: 80 g/ha, post-emergence at one-leaf stage, assessed visually after about 3 weeks; 100% = plants have died, 0% = like control plants. The procedure: (§3) Seeds of monocotyledonous and dicotyledonous weed and crop plants are laid out in sandy loam soil in wood-fiber pots, covered with soil and cultivated in a greenhouse under good growth conditions. 2 to 3 weeks after sowing, the test plants are treated at the one-leaf stage. The compounds of the invention, formulated in the form of wettable powders (WP) or as emulsion concentrates (EC), are then sprayed onto the green parts of the plants as aqueous suspension or emulsion at a water application rate equating to 600 to 800 l/ha with addition of 0.2% wetting agent. After the test plants have been left to stand in the greenhouse under optimal growth conditions for about 3 weeks, the action of the preparations is assessed visually in comparison to untreated controls (herbicidal action in per cent (%): 100% activity=the plants have died, 0% activity=like control plants).

In assay [6] the test system is Setaria viridis. Briefly: Post-emergence herbicidal effect. The following applies: 80 g/ha, post-emergence at one-leaf stage, assessed visually after about 3 weeks; 100% = plants have died, 0% = like control plants. The procedure: as §3
The subject of assay [7] is Alopecurus myosuroides. Briefly: Post-emergence herbicidal effect. The following applies: 80 g/ha, post-emergence at one-leaf stage, assessed visually after about 3 weeks; 100% = plants have died, 0% = like control plants. The procedure:
as §3

For assay [8], the system named is Lolium rigidum. Briefly: Post-emergence herbicidal effect. The following applies: 80 g/ha, post-emergence at one-leaf stage, assessed visually after about 3 weeks; 100% = plants have died, 0% = like control plants. The procedure: as §3
Assay [9] deals with Hordeum murinum. Kind of assay: Post-emergence herbicidal effect. The following applies: 80 g/ha, post-emergence at one-leaf stage, assessed visually after about 3 weeks; 100% = plants have died, 0% = like control plants. The method, then: as §3
Assay [10] has as its system Echinochloa crus-galli. Kind of assay: Post-emergence herbicidal effect. The following applies: 80 g/ha, post-emergence at one-leaf stage, assessed visually after about 3 weeks; 100% = plants have died, 0% = like control plants. The procedure: as §3

For `C#Cc1cc(Br)c(C2=C(O)C3(CCCC(OCCC)C3)NC2=O)c(OC)c1` (stereo not drawn) [Example 1.1.01], the “Pre-emergence action against AVEFA (herbicidal activity in percent)” value with Avena fatua came out at 100%. Besides, in the assay on Setaria viridis [1], the “Pre-emergence action against SETVI (herbicidal activity in percent)” value was 100%. Further, in the assay with Alopecurus myosuroides [2], the “Pre-emergence action against ALOMY (herbicidal activity in percent)” value is listed as 90%. In addition, the “Pre-emergence action against LOLRI (herbicidal activity in percent)” value in the assay with Lolium rigidum [3] is given as 100%. In addition, in the assay with Hordeum murinum [4], the “Pre-emergence action against HORMU (herbicidal activity in percent)” value is 90%. Further, the “Pre-emergence action against ECHCG (herbicidal activity in percent)” value in the assay with Echinochloa crus-galli [5] worked out at 100%. The “Post-emergence action against DIGSA (herbicidal action in per cent)” value with Digitaria sanguinalis is 90%. The “Post-emergence action against SETVI (herbicidal action in per cent)” value in the assay with Setaria viridis [6] is on record as 100%. Besides, the “Post-emergence action against ALOMY (herbicidal action in per cent)” value with Alopecurus myosuroides [7] is listed as 90%. Besides, the “Post-emergence action against LOLRI (herbicidal action in per cent)” value in the assay on Lolium rigidum [8] came out at 90%. Moreover, in the assay with Hordeum murinum [9], the “Post-emergence action against HORMU (herbicidal action in per cent)” value was found to be 80%. Besides, the “Post-emergence action against ECHCG (herbicidal action in per cent)” value in the assay on Echinochloa crus-galli [10] amounted to 100%.
Take `C#Cc1cc(Br)c(C2=C([O-])C3(CCCC(OCCC)C3)NC2=O)c(OC)c1.[Na+]` (stereo not drawn) [Example 1.1.02]: the “Pre-emergence action against AVEFA (herbicidal activity in percent)” value with Avena fatua came out at 100%. For the same compound, the “Pre-emergence action against SETVI (herbicidal activity in percent)” value with Setaria viridis [1] turned out to be 100%. Besides, the “Pre-emergence action against ALOMY (herbicidal activity in percent)” value in the assay with Alopecurus myosuroides [2] is 100%. Also, in the assay on Lolium rigidum [3], the “Pre-emergence action against LOLRI (herbicidal activity in percent)” value stood at 100%. Also, the “Pre-emergence action against HORMU (herbicidal activity in percent)” value in the assay with Hordeum murinum [4] turned out to be 100%. Further, the “Pre-emergence action against ECHCG (herbicidal activity in percent)” value in the assay with Echinochloa crus-galli [5] is listed as 100%. Moreover, the “Post-emergence action against DIGSA (herbicidal action in per cent)” value in the assay with Digitaria sanguinalis is reported as 100%. The “Post-emergence action against SETVI (herbicidal action in per cent)” value in the assay on Setaria viridis [6] is 100%. For the same compound, in the assay with Alopecurus myosuroides [7], the “Post-emergence action against ALOMY (herbicidal action in per cent)” value is given as 100%. Also, in the assay on Lolium rigidum [8], the “Post-emergence action against LOLRI (herbicidal action in per cent)” value is on record as 100%. Further, in the assay with Hordeum murinum [9], the “Post-emergence action against HORMU (herbicidal action in per cent)” value amounted to 100%. Besides, the “Post-emergence action against ECHCG (herbicidal action in per cent)” value in the assay on Echinochloa crus-galli [10] worked out at 100%.
In the case of `C#Cc1cc(Br)c(C2=C([O-])C3(CCCC(OCCOC)C3)NC2=O)c(OC)c1.[Na+]` (stereo not drawn) [Example 1.1.06], the “Pre-emergence action against AVEFA (herbicidal activity in percent)” value in the assay on Avena fatua was determined as 100%. In addition, the “Pre-emergence action against SETVI (herbicidal activity in percent)” value with Setaria viridis [1] was found to be 100%. For the same compound, the “Pre-emergence action against ALOMY (herbicidal activity in percent)” value with Alopecurus myosuroides [2] worked out at 100%. Besides, the “Pre-emergence action against LOLRI (herbicidal activity in percent)” value with Lolium rigidum [3] was found to be 100%. In addition, in the assay with Hordeum murinum [4], the “Pre-emergence action against HORMU (herbicidal activity in percent)” value was found to be 100%. The “Pre-emergence action against ECHCG (herbicidal activity in percent)” value in the assay on Echinochloa crus-galli [5] came to 100%. In addition, the “Post-emergence action against DIGSA (herbicidal action in per cent)” value with Digitaria sanguinalis is on record as 100%. Besides, the “Post-emergence action against SETVI (herbicidal action in per cent)” value with Setaria viridis [6] was 90%. For the same compound, the “Post-emergence action against ALOMY (herbicidal action in per cent)” value in the assay with Alopecurus myosuroides [7] came to 100%. The “Post-emergence action against LOLRI (herbicidal action in per cent)” value in the assay with Lolium rigidum [8] is 100%. In addition, in the assay with Hordeum murinum [9], the “Post-emergence action against HORMU (herbicidal action in per cent)” value is 90%. Besides, in the assay with Echinochloa crus-galli [10], the “Post-emergence action against ECHCG (herbicidal action in per cent)” value amounted to 100%.
Regarding `CC#Cc1cc(Br)c(C2=C(O)C3(CCCC(OCCOC)C3)NC2=O)c(OCC)c1` (stereo not drawn) [Example 1.1.17], the “Post-emergence action against DIGSA (herbicidal action in per cent)” value in the assay on Digitaria sanguinalis is on record as 100%. Further, the “Post-emergence action against SETVI (herbicidal action in per cent)” value in the assay with Setaria viridis [6] worked out at 100%. For the same compound, the “Post-emergence action against ALOMY (herbicidal action in per cent)” value in the assay on Alopecurus myosuroides [7] came to 100%. The “Post-emergence action against LOLRI (herbicidal action in per cent)” value with Lolium rigidum [8] came out at 100%. In addition, the “Post-emergence action against HORMU (herbicidal action in per cent)” value in the assay on Hordeum murinum [9] turned out to be 100%. Also, the “Post-emergence action against ECHCG (herbicidal action in per cent)” value in the assay with Echinochloa crus-galli [10] is recorded as 100%.
As to `CC#Cc1cc(Br)c(C2=C(OC(=O)OCC)C3(CCCC(OCCOC)C3)NC2=O)c(OCC)c1` (stereo not drawn) [Example 1.1.19], in the assay with Digitaria sanguinalis, the “Post-emergence action against DIGSA (herbicidal action in per cent)” value stood at 100%. Besides, the “Post-emergence action against SETVI (herbicidal action in per cent)” value in the assay with Setaria viridis [6] is given as 100%. Besides, the “Post-emergence action against ALOMY (herbicidal action in per cent)” value in the assay on Alopecurus myosuroides [7] stood at 100%. Moreover, the “Post-emergence action against LOLRI (herbicidal action in per cent)” value in the assay on Lolium rigidum [8] came out at 100%. In addition, the “Post-emergence action against HORMU (herbicidal action in per cent)” value in the assay with Hordeum murinum [9] worked out at 100%. The “Post-emergence action against ECHCG (herbicidal action in per cent)” value in the assay on Echinochloa crus-galli [10] worked out at 100%.

The record behind these values is patent US20230059463A1, “3-(2-BROMO-4-ALKYNYL-6-ALKOXYPHENYL)-SUBSTITUTED 5-SPIROCYCLOHEXYL-3-PYRROLIN-2-ONES AND THEIR USE AS HERBICIDES” (Bayer Aktiengesellschaft, priority 2019, published 2023).
